Data taken from article PMC4640066 (Nature Communications, 2015).

Key:
human γ-tubulin = molecular target: T1, human γ-tubulin (Homo sapiens, UniProt P23258); test: Inhibition of GTP binding of γ-tubulin (α-[32P]-GTP crosslinking assay); conditions: 60 μM compound; 70 nM γ-tubulin, 100 nM α-[32P]-GTP; mean±s.d.
T1 construct: myc (C); 6His (C); made in house; host or cells: Sf21 insect cells (baculovirus)
Protocol: For analysis of the effect of drugs on GTP binding of γ-tubulin, 70 nM of purified human γ-tubulin in GTP-binding buffer (50 mM MES, 5 mM MgCl2, 1 mM EGTA, pH 6.6) was incubated with or without compounds for 15 min at 20 °C. A final concentration of 100 nM of α-[^32P]-GTP was added and incubated at 20 °C for 30 min. After incubation, bound α-[^32P]-GTP was crosslinked to γ-tubulin for 60 s by illumination with a ultraviolet lamp using CL-1000 Ultraviolet Crosslinker. Protein with the crosslinked GTP was separated from unbound nucleotide by TCA precipitation and SDS–PAGE, and ^32P labelling was measured using a Typhoon FLA-7000 (General Electronic Company). Band intensities were quantified with the ImageJ software.

α/β-tubulin = molecular target: T2, α/β-tubulin (Sus scrofa, UniProt P02550+P02554); test: MT dynamics in vitro by TIRF microscopy of single MTs; assay type: biochemical, porcine; conditions: 30 μM, 5 μM tubulin, GMPCPP seeds
T2 construct: α/β-Tubulin was purified from porcine brain; from tissue; host or cells: porcine brain
T2 sequence (P02550 whole entry): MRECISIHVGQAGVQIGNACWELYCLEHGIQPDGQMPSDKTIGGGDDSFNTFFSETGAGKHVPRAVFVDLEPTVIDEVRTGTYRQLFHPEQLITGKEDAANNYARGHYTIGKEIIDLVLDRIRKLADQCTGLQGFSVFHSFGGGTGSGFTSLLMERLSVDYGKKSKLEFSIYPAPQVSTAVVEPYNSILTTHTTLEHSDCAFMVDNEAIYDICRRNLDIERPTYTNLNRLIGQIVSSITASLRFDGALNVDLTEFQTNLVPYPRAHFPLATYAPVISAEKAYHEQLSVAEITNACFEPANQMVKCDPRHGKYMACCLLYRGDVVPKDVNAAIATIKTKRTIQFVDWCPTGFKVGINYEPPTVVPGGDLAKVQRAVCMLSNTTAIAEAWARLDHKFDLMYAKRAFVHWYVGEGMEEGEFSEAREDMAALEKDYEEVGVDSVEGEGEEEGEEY
T2 sequence (P02554 whole entry): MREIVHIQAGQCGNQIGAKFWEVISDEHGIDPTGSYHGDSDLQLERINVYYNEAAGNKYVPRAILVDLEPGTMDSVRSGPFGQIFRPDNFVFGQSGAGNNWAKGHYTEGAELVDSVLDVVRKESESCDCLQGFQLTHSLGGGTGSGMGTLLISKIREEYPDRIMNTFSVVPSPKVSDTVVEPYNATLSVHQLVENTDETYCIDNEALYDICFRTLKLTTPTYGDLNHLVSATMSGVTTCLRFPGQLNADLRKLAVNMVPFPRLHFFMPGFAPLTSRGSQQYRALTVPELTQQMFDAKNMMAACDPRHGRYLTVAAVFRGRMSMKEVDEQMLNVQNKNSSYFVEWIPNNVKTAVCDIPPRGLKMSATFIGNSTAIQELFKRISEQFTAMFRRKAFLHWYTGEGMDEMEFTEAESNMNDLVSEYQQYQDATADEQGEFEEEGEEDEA
Protocol: Purified α/β-tubulin was labelled with tetramethylrhodamine Succinimidyl Ester (C-1171, Life Technologies), Alexa Fluor 647 NHS Ester (A-20106, Life Technologies) or NHS-LC-biotin (21336, Life Technologies) as described. Briefly, α/β-tubulin was polymerized to form MTs. Then, the MTs were centrifuged, resuspended in labelling buffer containing NHS-conjugated dye or biotin. After the labelling reaction, two cycles of polymerization and depolymerization were performed to obtain active α/β-tubulin.
GMPCPP MT seeds were prepared by copolymerization of non-labelled tubulin, tetramethylrhodamine-labelled tubulin and biotin-labelled tubulin with 0.2 mM GMPCPP to yield the rhodamine and biotin labelling ratio 2% and 3%, respectively. GMPCPP was prepared enzymatically from GMPCP (M3170, Sigma-Aldrich) and nucleotide diphosphate kinase (N0379, Sigma-Aldrich)[35]. The glass chambers for observation were prepared as follows. […] The images of MTs were observed under total internal reflection fluorescence microscopy (IX81, Olympus) with a × 100 objective lens (UPlanSApo, numerical aperture (NA) 1.40, Olympus) and recorded at the frame rate of two frames per second using iXon3 EM CCD camera (Andor). […]

HeLa cells [1] = test: MT nucleation (regrowth) assay, HeLa cells; assay type: cell-based, human; conditions: 30 μM, MT regrowth 1 min, EB1 area
Protocol: HeLa and U2OS cells were cultured in DMEM+GlutaMAX (Gibco) supplemented with 10% fetal bovine serum (FBS), 100 U ml^−1 penicillin, 100 μg ml^−1 streptomycin and 1 mM sodium pyruvate in a humidified atmosphere containing 5% CO2. RPE-1 cells were cultured in DMEM/F-12 (Gibco) supplemented with 10% FBS, 2 mM L-glutamine, 100 U ml^−1 penicillin, 100 μg ml^−1 streptomycin, 1 mM sodium pyruvate containing 10% FBS in a humidified atmosphere containing 5% CO2.
To depolymerize MTs, interphase cells were treated with 10 μM of nocodazole for 3 h, washed with cold medium and incubated on ice for 1 h. Mitotic cells were treated with 10 μM of STLC for 6 h, washed with cold medium and incubated on ice for 1 h. Subsequently, both cells were incubated in medium containing 1% DMSO or 30 μM of gatastatin for 10 min on ice. Cells were then put in warmed medium containing either 1% DMSO or 30 μM of gatastatin and were incubated at 37 °C (interphase cells) or 20 °C (mitotic cells) for 1 min. The cells were immediately fixed with cold MeOH (−20 °C).
After blocking with PBS containing 0.5% bovine serum albumin, cells were incubated with anti-EB1 antibody (1:500 dilution, Abcam, Cat# ab53358), anti-α-tubulin antibody (1:500 dilution, Sigma, Cat# T9026) and anti-pericentrin antibody (1:2,000 dilution, Abcam, Cat# ab4448). […]

HeLa cells [2] = test: Transition from S phase to mitotic entry and spindle formation; assay type: cell-based, human; conditions: 30 μM
Protocol: Cells expressing EGFP-α-tubulin and mCherry-H2B were prepared as described previously. Cells were arrested at the S phase with 2-mM thymidine treatment for 15 h. To determine the time required for mitotic entry from S phase release, thymidine was removed by washing cells with PBS three times. After treatment with 30 μM gatastatin for 9 h, time-lapse analysis was performed using DeltaVision Olympus IX71 microscope (Applied Precision) equipped with CoolSNAP HQ camera (Photometrics). Images were taken every 6 min with 12 z-stack (1 μm per stack). During live cell imaging, cells were maintained at 37 °C and were supplied with 5% CO2. The timing of the mitotic entry was defined by the chromosome condensation after nuclear envelope breakdown.

T1 sequence (P23258 whole entry): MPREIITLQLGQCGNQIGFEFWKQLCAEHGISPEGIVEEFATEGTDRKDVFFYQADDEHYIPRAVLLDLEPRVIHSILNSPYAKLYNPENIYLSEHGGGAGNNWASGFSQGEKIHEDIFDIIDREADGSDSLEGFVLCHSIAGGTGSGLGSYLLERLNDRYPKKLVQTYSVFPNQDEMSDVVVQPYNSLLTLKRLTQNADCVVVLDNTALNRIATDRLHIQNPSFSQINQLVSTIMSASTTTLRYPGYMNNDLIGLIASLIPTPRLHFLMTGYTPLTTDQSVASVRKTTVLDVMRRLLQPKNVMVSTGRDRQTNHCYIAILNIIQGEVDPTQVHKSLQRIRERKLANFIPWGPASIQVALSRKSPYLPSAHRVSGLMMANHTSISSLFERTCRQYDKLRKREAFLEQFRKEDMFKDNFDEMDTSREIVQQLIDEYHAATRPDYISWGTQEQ

GTP binding (control %) (human γ-tubulin): 6.7±3.7%
Effect on MT growth velocity (TIRF analysis of single MTs) (α/β-tubulin): did not affect MT growth velocity
SMILES: COc1cc2c(=O)c(-c3cc(OC)c4c(c3OC)OCO4)coc2cc1OCc1ccccc1 [Gatastatin, O^7-demethylbenzyl AG1]
Effect on MT nucleation activity of interphase and mitotic centrosomes (HeLa cells [1]): inhibited MT nucleation activity
Mitotic cells with abnormal bipolar spindles with misaligned chromosomes (HeLa cells [2]; HeLa cells released from S phase (thymidine)): ~80%
Timing of mitotic entry versus DMSO (HeLa cells [2]; HeLa released from S phase): virtually identical
